From US8242166B2, “C(10) ethyl ester and C(10) cyclopropyl ester substituted taxanes” (Florida State University Research Foundation, Inc., priority 2008, dated 2012)
Several values for one entry are separate records, joined by “and”; a condition that tells them apart may be missing. Equal values may be shown once. Read-outs that look alike come from different tables or passages of the source.

Tests used:
[1] = test system: SKMES lung tumors; experiment: SKMES xenograft study, i.v. single dose (Example 20); format: in vivo, nude mice; conditions: 30 mg/kg iv qd × 1
Procedure: This study was conducted at PRC as previously described. SKMES is a human lung cancer cell line. In the present study, compound 2 and all agents were administered as i.v. monotherapies in a single 30 mg/kg dose (qd×1). […] Control mice received this vehicle qd×1. […] The endpoint volume for tumor growth was 1,500 mm^3. The study was terminated on Day 23.

[2] = test system: human SKMES lung carcinoma xenografts; experiment: SKMES xenograft study e82, i.v. q4d×4 (Example 21); format: in vivo, nude mice; conditions: 30 mg/kg i.v. q4d×4; five mice
[3] = test system: HT29 human tumor xenografts; experiment: HT29 xenograft study e133 (Example 24); format: in vivo, nude mice
Procedure: […]. Control mice received the 5% E 95% L-II vehicle q4d×4. A positive reference group received i.v. therapy with compound 2, at 30 mg/kg once weekly for three weeks (q7d×3), in a vehicle of 7.5% ethanol and 7.5% Tween® 80 in 5% dextrose in water. […] The endpoint volume for tumor growth was 1,000 mm^3. […].

[4] = test system: MX1 human tumor xenografts
[5] = test system: human HT29 colon carcinoma xenografts
[6] = test system: MX1 human tumor xenografts; experiment: MX1 xenograft study e220, i.v. q4d×4 (Example 18); conditions: for maximum group mean BW loss: on D19

CCC(=O)O[C@H]1C(=O)[C@@]2(C)C([C@H](OC(=O)c3ccccc3)[C@]3(O)C[C@H](OC(=O)[C@H](O)[C@@H](NC(=O)OC4CCC4)c4cccs4)C(C)=C1C3(C)C)[C@]1(OC(C)=O)CO[C@@H]1C[C@@H]2O (stereo partly drawn) [Compound 19244]
% TGD [1]: 61.94% | MTV (n), Day 23 [1]: 352.00 (5) mm^3 | Median TTE [1]: 23 days | T-C [1]: 8.8 days | NTR NTRm ([1]; n=5): 0 | PR (partial regression) ([1]; n=5): 0 | TFS (tumor-free survivor) ([1]; n=5): 1 | TR (treatment-related death) ([1]; n=5): 0 | TFS [2]: 3 | partial response [2]: two | MTV ([3]; 30 mg/kg i.v. q4d×4): 0 | TGD ([3]; 30 mg/kg i.v. q4d×4): 172% | 55-day survivors ([3]; 30 mg/kg i.v. q4d×4, six mice): five | Max. % BW Loss; Day ([3]; 30 mg/kg iv Q4d × 4): −17.3%; Day 17 | # Death NTR ([3]; 30 mg/kg iv Q4d × 4, n=6): 0 | % TGD ([4]; 7.5 mg/kg iv qd × 1): −3% and −2.64% | Median TTE ([4]; 7.5 mg/kg iv qd × 1): 16.72 days | T-C ([4]; 7.5 mg/kg iv qd × 1): -0.45 days | activity (logrank test) ([4]; 7.5 mg/kg iv qd × 1): nonsignificant activities | CR (complete regression) ([4]; 7.5 mg/kg iv qd × 1, n=5): 0 | NTR (non-treatment-related death) ([4]; 7.5 mg/kg iv qd × 1, n=5): 0 | PR (partial regression) ([4]; 7.5 mg/kg iv qd × 1, n=5): 0 | TFS (tumor-free survivor) ([4]; 7.5 mg/kg iv qd × 1, n=5): 0 | TR (treatment-related death) ([4]; 7.5 mg/kg iv qd × 1, n=5): 0 | % TGD ([4]; 15 mg/kg iv qd × 1): 83% and 83.42% | Median TTE ([4]; 15 mg/kg iv qd × 1): 31.49 days | T-C ([4]; 15 mg/kg iv qd × 1): 14.32 days | activity (logrank test) ([4]; 15 mg/kg iv qd × 1): nonsignificant activities | CR (complete regression) ([4]; 15 mg/kg iv qd × 1, n=5): 0 | NTR (non-treatment-related death) ([4]; 15 mg/kg iv qd × 1, n=5): 0 | PR (partial regression) ([4]; 15 mg/kg iv qd × 1, n=5): 0 | TFS (tumor-free survivor) ([4]; 15 mg/kg iv qd × 1, n=5): 0 | TR (treatment-related death) ([4]; 15 mg/kg iv qd × 1, n=5): 0 | % TGD ([4]; 30 mg/kg iv qd × 1): 235% and 235.44% | MTV (n), Day 60 ([4]; 30 mg/kg iv qd × 1): 0.00 (2) mm^3 | Median TTE ([4]; 30 mg/kg iv qd × 1): 57.59 days | T-C ([4]; 30 mg/kg iv qd × 1): 40.42 days | activity (logrank test) ([4]; 30 mg/kg iv qd × 1): significant activity | CR (complete regression) ([4]; 30 mg/kg iv qd × 1, n=5): 4 | NTR (non-treatment-related death) ([4]; 30 mg/kg iv qd × 1, n=5): 0 | PR (partial regression) ([4]; 30 mg/kg iv qd × 1, n=5): 1 | TFS (tumor-free survivor) ([4]; 30 mg/kg iv qd × 1, n=5): 2 | TR (treatment-related death) ([4]; 30 mg/kg iv qd × 1, n=5): 0 | mice survived to D60 ([4]; 30 mg/kg iv qd × 1, n=5): two | transient CRs ([4]; 30 mg/kg iv qd × 1, n=5): 2 | LTTFS ([5]; 30 mg/kg i.v. q4d×4, six mice): 1 | regression responses ([5]; 30 mg/kg i.v. q4d×4, six mice): six | % TGD ([6]; 7.5 mg/kg iv q4d × 4): 217.17% | BW Nadir ([6]; 7.5 mg/kg iv q4d × 4): −3.1% (19) | MTV (n), Day 57 ([6]; 7.5 mg/kg iv q4d × 4): 0.00 (5) mm^3 | Median TTE ([6]; 7.5 mg/kg iv q4d × 4): 57 days | T-C ([6]; 7.5 mg/kg iv q4d × 4): 39.03 days | CR (complete regression) ([6]; 7.5 mg/kg iv q4d × 4, n=5): 5 | NTR (non-treatment-related death) ([6]; 7.5 mg/kg iv q4d × 4, n=5): 0 | PR (partial regression) ([6]; 7.5 mg/kg iv q4d × 4, n=5): 0 | TFS (tumor-free survivor) ([6]; 7.5 mg/kg iv q4d × 4, n=5): 3 | TR (treatment-related death) ([6]; 7.5 mg/kg iv q4d × 4, n=5): 0 | transient CRs ([6]; 7.5 mg/kg iv q4d × 4, n=5): 2 | maximum group mean BW loss ([6]; 7.5 mg/kg iv q4d × 4): 3.1% | % TGD ([6]; 15 mg/kg iv q4d × 4): 217.17% | BW Nadir ([6]; 15 mg/kg iv q4d × 4): −7.6% (19) | MTV (n), Day 57 ([6]; 15 mg/kg iv q4d × 4): 0.00 (5) mm^3 | Median TTE ([6]; 15 mg/kg iv q4d × 4): 57 days | T-C ([6]; 15 mg/kg iv q4d × 4): 39.03 days | CR (complete regression) ([6]; 15 mg/kg iv q4d × 4, n=5): 5 | NTR (non-treatment-related death) ([6]; 15 mg/kg iv q4d × 4, n=5): 0 | PR (partial regression) ([6]; 15 mg/kg iv q4d × 4, n=5): 0 | TFS (tumor-free survivor) ([6]; 15 mg/kg iv q4d × 4, n=5): 5 | TR (treatment-related death) ([6]; 15 mg/kg iv q4d × 4, n=5): 0 | maximum group mean BW loss ([6]; 15 mg/kg iv q4d × 4): 7.6% | % TGD ([6]; 30 mg/kg iv q4d × 4): 217.17% | BW Nadir ([6]; 30 mg/kg iv q4d × 4): −18.9% (19) | MTV (n), Day 57 ([6]; 30 mg/kg iv q4d × 4): 0.00 (5) mm^3 | Median TTE ([6]; 30 mg/kg iv q4d × 4): 57 days | T-C ([6]; 30 mg/kg iv q4d × 4): 39.03 days | CR (complete regression) ([6]; 30 mg/kg iv q4d × 4, n=5): 4 | NTR (non-treatment-related death) ([6]; 30 mg/kg iv q4d × 4, n=5): 0 | PR (partial regression) ([6]; 30 mg/kg iv q4d × 4, n=5): 1 | TFS (tumor-free survivor) ([6]; 30 mg/kg iv q4d × 4, n=5): 4 | TR (treatment-related death) ([6]; 30 mg/kg iv q4d × 4, n=5): 0 | maximum group mean BW loss ([6]; 30 mg/kg iv q4d × 4): 18.9%

CC(=O)O[C@@]12CO[C@@H]1C[C@H](O)[C@@]1(C)C(=O)[C@H](O)C3=C(C)[C@@H](OC(=O)[C@H](O)[C@@H](NC(=O)OC(C)(C)C)c4ccccc4)C[C@@](O)([C@@H](OC(=O)c4ccccc4)[C@H]21)C3(C)C [Docetaxel, docetaxel, reference compound]
% TGD [1]: 61.94% | MTV (n), Day 23 [1]: 166.75 (4) mm^3 | Median TTE [1]: 23 days | T-C [1]: 8.8 days | CR (complete regression) ([1]; n=5): 0 | NTR NTRm ([1]; n=5): 0 | PR (partial regression) ([1]; n=5): 2 | TFS (tumor-free survivor) ([1]; n=5): 0 | TR (treatment-related death) ([1]; n=5): 0 | # Death NTR ([3]; 30 mg/kg iv Q7d × 3, n=6): 0 | # Death TR ([3]; 30 mg/kg iv Q7d × 3, n=6): 0 | % TGD ([4]; 25 mg/kg iv qd × 1): 249.47% | MTV (n), Day 60 ([4]; 25 mg/kg iv qd × 1): 0.00 (3) mm^3 | Median TTE ([4]; 25 mg/kg iv qd × 1): 60 days | T-C ([4]; 25 mg/kg iv qd × 1): 42.83 days | CR (complete regression) ([4]; 25 mg/kg iv qd × 1, n=5): 3 | NTR (non-treatment-related death) ([4]; 25 mg/kg iv qd × 1, n=5): 0 | PR (partial regression) ([4]; 25 mg/kg iv qd × 1, n=5): 0 | TFS (tumor-free survivor) ([4]; 25 mg/kg iv qd × 1, n=5): 2 | TR (treatment-related death) ([4]; 25 mg/kg iv qd × 1, n=5): 0 | mice survived to D60 ([4]; 25 mg/kg iv qd × 1, n=5): Three | transient CR ([4]; 25 mg/kg iv qd × 1, n=5): 1 | LTTFS ([5]; 25 mg/kg q7d×3, six mice): one | PR responses ([5]; 25 mg/kg q7d×3, six mice): 4 | Number of Death NTR ([5]; mouse, in vivo): 0 | Number of Death TR ([5]; mouse, in vivo): 0 | % TGD ([6]; 25 mg/kg iv qwk × 3): 217.17% | BW Nadir ([6]; 25 mg/kg iv qwk × 3): −10.9% (22) | MTV (n), Day 57 ([6]; 25 mg/kg iv qwk × 3): 0.00 (5) mm^3 | Median TTE ([6]; 25 mg/kg iv qwk × 3): 57 days | T-C ([6]; 25 mg/kg iv qwk × 3): 39.03 days | CR (complete regression) ([6]; 25 mg/kg iv qwk × 3, n=5): 5 | NTR (non-treatment-related death) ([6]; 25 mg/kg iv qwk × 3, n=5): 0 | PR (partial regression) ([6]; 25 mg/kg iv qwk × 3, n=5): 0 | TFS (tumor-free survivor) ([6]; 25 mg/kg iv qwk × 3, n=5): 5 | TR (treatment-related death) ([6]; 25 mg/kg iv qwk × 3, n=5): 0
